From PubChem BioAssay AID2060882 (Molecular Pharmacology Branch, DTP, NCI, 2025)

System: 898857-211-R-J1-PDC complex spheroids, growth % test/control
Test: Anticancer human tumor 898857-211-R-J1-PDC patient-derived melanoma cell line growth inhibition [RAS]
Details: for IC50: curve of first compound; for viability, T/C: stronger effect = lower value
In short: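 Agents were tested in combination matrices in half-log decrements from a top concentration at or near clinical Cmax (10 microM if undetermined). Targets were multi-cell spheroids of tumour lines plus HUVEC and MSC stromal cells.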

[1] = second compound 0.00316 µM, first compound 0.000949 µM
[2] = second compound 0.00316 µM, first compound 0.003 µM
[3] = second compound 0.00316 µM, first compound 0.00949 µM
[4] = second compound 0.00316 µM, first compound 0.03 µM
[5] = second compound 0.00316 µM, first compound 0.0949 µM
[6] = second compound 0.00316 µM, first compound 0.3 µM
[7] = second compound 0.01 µM, first compound 0.000949 µM
[8] = second compound 0.01 µM, first compound 0.003 µM
[9] = second compound 0.01 µM, first compound 0.00949 µM
[10] = second compound 0.01 µM, first compound 0.03 µM
[11] = second compound 0.01 µM, first compound 0.0949 µM
[12] = second compound 0.01 µM, first compound 0.3 µM
[13] = second compound 0.0316 µM, first compound 0.000949 µM
[14] = second compound 0.0316 µM, first compound 0.003 µM
[15] = second compound 0.0316 µM, first compound 0.00949 µM
[16] = second compound 0.0316 µM, first compound 0.03 µM
[17] = second compound 0.0316 µM, first compound 0.0949 µM
[18] = second compound 0.0316 µM, first compound 0.3 µM
[19] = second compound 0.1 µM, first compound 0.000949 µM
[20] = second compound 0.1 µM, first compound 0.003 µM
[21] = second compound 0.1 µM, first compound 0.00949 µM
[22] = second compound 0.1 µM, first compound 0.03 µM
[23] = second compound 0.1 µM, first compound 0.0949 µM
[24] = second compound 0.1 µM, first compound 0.3 µM
[25] = second compound 0.316 µM, first compound 0.000949 µM
[26] = second compound 0.316 µM, first compound 0.003 µM
[27] = second compound 0.316 µM, first compound 0.00949 µM
[28] = second compound 0.316 µM, first compound 0.03 µM
[29] = second compound 0.316 µM, first compound 0.0949 µM
[30] = second compound 0.316 µM, first compound 0.3 µM
[31] = second compound 1 µM, first compound 0.000949 µM
[32] = second compound 1 µM, first compound 0.003 µM
[33] = second compound 1 µM, first compound 0.00949 µM
[34] = second compound 1 µM, first compound 0.03 µM
[35] = second compound 1 µM, first compound 0.0949 µM
[36] = second compound 1 µM, first compound 0.3 µM
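Further: spheroids exposed to compound for seven days before readout.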
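Wherever viability, T/C is given: 100% = DMSO vehicle control wells.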

CC1(C)CCC(Nc2ncc(C(F)(F)F)c(-c3c[nH]c4c(P(C)(C)=O)c(C#N)ccc34)n2)CN1 (centres undefined) + C=CC(=O)N1CCN(c2nc(OCC3CCCN3C)nc3c(F)c(-c4nc(N)cc(C)c4C(F)(F)F)c(Cl)cc23)C(C)C1 was tested, and the IC50 (second compound 0.00316 µM) was 5.36 nM, the IC50 (second compound 0.01 µM) was 5.18 nM and the IC50 (second compound 0.0316 µM) was 4.69 nM. It also gave an IC50 (second compound 0.1 µM) of 5.81 nM, an IC50 (second compound 0.316 µM) of 5.77 nM and an IC50 (second compound 1 µM) of 4.52 nM. For the same compound, the viability, T/C [1] was 96.9%, the viability, T/C [2] was 67.8% and the viability, T/C [3] was 32.1%. It also gave a viability, T/C [4] of 20.6%, a viability, T/C [5] of 16.4% and a viability, T/C [6] of 14.5%. For the same compound, the viability, T/C [7] was 96.9%, the viability, T/C [8] was 66.3% and the viability, T/C [9] was 32.1%. The viability, T/C [10] was 19.5%, the viability, T/C [11] was 18.5% and the viability, T/C [12] was 17.8%. The viability, T/C [13] was 91.3%, the viability, T/C [14] was 61.3% and the viability, T/C [15] was 32%. The viability, T/C [16] was 22%, the viability, T/C [17] was 17.4% and the viability, T/C [18] was 17.1%. For the same compound, the viability, T/C [19] was 91.8%, the viability, T/C [20] was 74.7% and the viability, T/C [21] was 32%. For the same compound, the viability, T/C [22] was 14.9%, the viability, T/C [23] was 17.6% and the viability, T/C [24] was 15.8%. It also gave a viability, T/C [25] of 101%, a viability, T/C [26] of 70.5% and a viability, T/C [27] of 33.8%. The viability, T/C [28] was 21.8%, the viability, T/C [29] was 17.8% and the viability, T/C [30] was 15%. It also gave a viability, T/C [31] of 98.9%, a viability, T/C [32] of 61.3% and a viability, T/C [33] of 29.3%. The viability, T/C [34] was 18.3%, the viability, T/C [35] was 15% and the viability, T/C [36] was 12.2%.
In the case of CCc1c2c(nc3ccc(O)cc13)-c1cc3c(c(=O)n1C2)COC(=O)[C@]3(O)CC + C=CC(=O)N1CCN(c2nc(OCC3CCCN3C)nc3c(F)c(-c4nc(N)cc(C)c4C(F)(F)F)c(Cl)cc23)C(C)C1, the IC50 (second compound 0.00316 µM) is reported as 4.67 nM, the IC50 (second compound 0.01 µM) is reported as 4.95 nM and the IC50 (second compound 0.0316 µM) is reported as 5.08 nM. It also gave an IC50 (second compound 0.1 µM) of 4.95 nM, an IC50 (second compound 0.316 µM) of 5.43 nM and an IC50 (second compound 1 µM) of 5.56 nM. It also gave a viability, T/C [1] of 95.2%, a viability, T/C [2] of 64.1% and a viability, T/C [3] of 27.9%. The viability, T/C [4] was 8.98%, the viability, T/C [5] was 7.24% and the viability, T/C [6] was 8.79%. It also gave a viability, T/C [7] of 89.6%, a viability, T/C [8] of 67.4% and a viability, T/C [9] of 27.5%. It also gave a viability, T/C [10] of 10.1%, a viability, T/C [11] of 7.97% and a viability, T/C [12] of 8.39%. It also gave a viability, T/C [13] of 87.3%, a viability, T/C [14] of 69.2% and a viability, T/C [15] of 27.4%. For the same compound, the viability, T/C [16] was 8.88%, the viability, T/C [17] was 8.21% and the viability, T/C [18] was 8.99%. The viability, T/C [19] was 93%, the viability, T/C [20] was 68.7% and the viability, T/C [21] was 26%. It also gave a viability, T/C [22] of 8.12%, a viability, T/C [23] of 7.6% and a viability, T/C [24] of 8.98%. It also gave a viability, T/C [25] of 98.4%, a viability, T/C [26] of 73.3% and a viability, T/C [27] of 28.4%. It also gave a viability, T/C [28] of 9.68%, a viability, T/C [29] of 9.81% and a viability, T/C [30] of 8.65%. For the same compound, the viability, T/C [31] was 98%, the viability, T/C [32] was 75.5% and the viability, T/C [33] was 27.8%. The viability, T/C [34] was 11.4%, the viability, T/C [35] was 8.78% and the viability, T/C [36] was 8.26%.
